Experimental data as given in US20260022094A1, “Compounds for the Treatment of Neurodegenerative Diseases” (Celgene Corporation, priority 2022, published 2026).

Target: T1, S1P5 receptors (Homo sapiens, UniProt Q9H228)
T1 construct: expressed in transfected cells; host or cells: CHO cells (membranes)
Assay: [35S]-GTPγS binding assay on CHO-S1P5 membranes (S1P5 agonism)
Type: biochemical
Conditions: membranes of CHO cells expressing recombinant S1P5; measure of S1P5 agonism
Experimental: CHO cells expressing recombinant S1P5 receptors were cultured in 500 cm^2 culture trays and, once confluent, rinsed and detached with cell-lifting buffer (10 mM HEPES, 154 mM NaCl, 6.85 mM EDTA, pH 7.4). Cells were then pelleted by centrifugation, resuspended, and homogenized in membrane preparation buffer (10 mM HEPES and 10 mM EDTA, pH 7.4) using a Polytron PT 1200E homogenizer (Kinematica, Luzern, Switzerland). Cellular proteins were pelleted by centrifugation at 48,000×g at 4° C. for 30 minutes. The resulting supernatant was discarded, and the pellet was re-suspended again in membrane preparation buffer, homogenized for a second time, and then centrifuged again as described above. The final cellular protein pellet was suspended in ice cold resuspension buffer (10 mM HEPES and 0.1 mM EDTA, pH 7.4), divided into aliquots, and stored at −80° C. until use.
Functional binding assays for [^35S]-GTPγS were performed in 96-well non-binding surface plates with a final volume of 200 μL. The test compounds were serially diluted in DMSO and added to assay plates using a Tecan D300E digital printer with a total volume of 0.4 μL. The control sphingosine-1-phosphate (SIP) was prepared separately by preparing a 400 µM stock solution from a 100 nmol pellet of S1P in 10 mM Na2CO3 with 2% β-cyclodextrin. The serial dilution of S1P was done using complete assay buffer (20 mM HEPES, 10 mM MgCl2, 100 mM NaCl, 1 mM EDTA, 0.1% fatty acid free bovine serum albumin (BSA), and 30 μg/mL saponin, pH 7.4) and transferred to wells already containing 0.4 μL DMSO. All the wells were then loaded to a total volume of 40 μL of complete assay buffer, except the non-specific binding (NSB) wells. For NSB wells, 40 μL/well of 50 μM GTPγS (Sigma Aldrich, cat #G8634, St. Louis, MO) was added to wells containing 0.4 μL of DMSO. The assay was started by the addition of 120 μL/well of CHO-SIP receptor membrane solution containing 40 μg/mL of membrane protein, 16.67 μM guanosine diphosphate (GDP; Sigma Aldrich, cat #G7127, St. Louis, MO), and 2.5 mg/mL of WGA PVT SPA beads in complete buffer. Assay plates were then sealed and incubated at room temperature with gentle agitation for 30 minutes. Next, 40 μL/well of 1 nM of [^35S]-GTPγS (PerkinElmer, cat #NEG030X^250UC, Waltham, MA) in basic assay buffer (20 mM HEPES, 10 mM MgCl2, 100 mM NaCl, and 1 mM EDTA, pH7.4) was added to the assay plates to yield a final concentration of […] and the plates were further incubated for 40 minutes at room temperature with gentle agitation. The assay was terminated by centrifugation of the plates at 1000 rpm for 3 minutes using an Eppendorf 5810R centrifuge (Eppendorf, Hamburg, Germany) and G protein bound radioactivity was quantitated using a MicroBeta2 microplate scintillation counter (PerkinElmer, Waltham, MA). As G protein bound radioactivity directly correlates to receptor activation and coupling to the G protein, this assay is a measure of S1P5 agonism.

T1 sequence (Q9H228 whole entry): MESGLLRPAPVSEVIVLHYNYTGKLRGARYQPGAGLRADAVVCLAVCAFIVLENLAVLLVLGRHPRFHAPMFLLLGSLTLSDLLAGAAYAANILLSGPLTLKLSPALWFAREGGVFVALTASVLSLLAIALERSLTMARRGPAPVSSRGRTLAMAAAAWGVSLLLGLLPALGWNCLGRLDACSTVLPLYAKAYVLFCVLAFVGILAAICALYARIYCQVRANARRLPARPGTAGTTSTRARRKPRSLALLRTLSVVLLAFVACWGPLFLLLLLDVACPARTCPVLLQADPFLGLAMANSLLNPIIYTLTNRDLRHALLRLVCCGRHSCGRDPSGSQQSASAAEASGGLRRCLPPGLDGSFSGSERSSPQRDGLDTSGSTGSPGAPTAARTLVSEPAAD

Row | Compound | EC50 [nM]
1 | CC1(O)CCN(C2CCc3cc(-c4ccc(C5CC5)c(Cl)c4)ccc32)C1 (centres unmarked) [Compound 7, 1-(5-(3-chloro-4-cyclopropylphenyl)-2,3-dihydro-1H-inden-1-yl)-3-methylpyrrolidin-3-ol] | 100 to 1000
2 | CC1(O)CCN(C2CCc3cc(C4CN(c5c(Cl)cccc5Cl)C4)ccc32)CC1 (centres unmarked) [Compound 8, 1-(5-(1-(2,6-dichlorophenyl)azetidin-3-yl)-2,3-dihydro-1H-inden-1-yl)-4-methyl-piperidin-4-ol] | 1000 to 10000
3 | CC1(O)CCN(C2CCc3cc(C4CN(c5c(Cl)cccc5Cl)C4)ccc32)C1 (centres unmarked) [Compound 9, 1-(5-(1-(2,6-dichlorophenyl)azetidin-3-yl)-2,3-dihydro-1H-inden-1-yl)-3-methylpyrrolidin-3-ol] | 100 to 1000
4 | Cc1cc(-c2ccc(C3CC3)c(Cl)c2)cc2c1C(N1CCC(C)(O)CC1)CC2 (centres unmarked) [Compound 11, 1-(5-(3-chloro-4-cyclopropylphenyl)-7-methyl-2,3-dihydro-1H-inden-1-yl)-4-methylpiperidin-4-ol] | 1000 to 10000
5 | Cc1cc(-c2ccc(C3CC3)c(Cl)c2)cc2c1C(N1CCC(C)(O)C1)CC2 (centres unmarked) [Compound 12, 1-(5-(3-chloro-4-cyclopropylphenyl)-7-methyl-2,3-dihydro-1H-inden-1-yl)-3-methylpyrrolidin-3-ol] | 100 to 1000
6 | CC1(O)CN(Cc2ccc(C#Cc3c(F)cccc3F)cc2)C1 [Compound 28, 1-(4-((2,6-difluoro-phenyl)ethynyl)benzyl)-3-methylazetidin-3-ol] | 100 to 1000
7 | CC1(O)CN(Cc2ccc(C#Cc3cccc(F)c3)cc2)C1 [Compound 29, 1-(4-((3-fluorophenyl)-ethynyl)benzyl)-3-methylazetidin-3-ol] | 100 to 1000
8 | CC1(O)CCN(Cc2ccc(C3CN(c4c(Cl)cccc4Cl)C3)cc2)CC1 [Compound 30, 1-(4-(1-(2,6-dichlorophenyl)azetidin-3-yl)benzyl)-4-methylpiperidin-4-ol] | 1000 to 10000
9 | CC1(O)CN(Cc2ccc(C3CN(c4c(Cl)cccc4Cl)C3)cc2)C1 [Compound 31, 1-(4-(1-(2,6-dichlorophenyl)azetidin-3-yl)benzyl)-3-methylazetidin-3-ol] | 10 to 100
10 | CC1(O)CCN(Cc2ccc(N3CC(c4c(Cl)cccc4Cl)C3)cc2)CC1 [Compound 32, 1-(4-(3-(2,6-dichlorophenyl)azetidin-1-yl)benzyl)-4-methylpiperidin-4-ol] | 1000 to 10000
11 | CC1(O)CN(Cc2ccc(N3CC(c4c(Cl)cccc4Cl)C3)cc2)C1 [Compound 33, 1-(4-(3-(2,6-dichlorophenyl)azetidin-1-yl)benzyl)-3-methylazetidin-3-ol] | 100 to 1000
12 | Cc1cc(C2CN(c3c(Cl)cccc3Cl)C2)cc(C)c1CN1CCC(C)(O)CC1 [Compound 34, 1-(4-(1-(2,6-dichlorophenyl)azetidin-3-yl)-2,6-dimethylbenzyl)-4-methylpiperidin-4-ol] | 100 to 1000
13 | Cc1cc(C2CN(c3c(Cl)cccc3Cl)C2)cc(C)c1CN1CC(C)(O)C1 [Compound 35, 1-[[4-[1-(2,6-dichlorophenyl)azetidin-3-yl]-2,6-dimethyl-phenyl]methyl]-3-methyl-azetidin-3-ol] | 10 to 100
14 | Cc1cc(N2CC(c3c(Cl)cccc3Cl)C2)cc(C)c1CN1CCC(C)(O)CC1 [Compound 36, 1-(4-(3-(2,6-dichlorophenyl)azetidin-1-yl)-2,6-dimethylbenzyl)-4-methylpiperidin-4-ol] | 100 to 1000
15 | Cc1cc(N2CC(c3c(Cl)cccc3Cl)C2)cc(C)c1CN1CC(C)(O)C1 [Compound 37, 1-(4-(3-(2,6-dichlorophenyl)azetidin-1-yl)-2,6-dimethylbenzyl)-3-methylazetidin-3-ol] | 1 to 10
16 | CCC1(O)CN(Cc2c(C)cc(C3CN(c4c(Cl)cccc4Cl)C3)cc2C)C1 [Compound 38, 1-(4-(1-(2,6-dichlorophenyl)azetidin-3-yl)-2,6-dimethylbenzyl)-3-ethylazetidin-3-ol] | 100 to 1000

Row | Compound | EC50 [nM]
17 | Cc1cc(C2CN(c3c(Cl)cccc3Cl)C2)cc(C)c1CN1CC(O)(CF)C1 [Compound 39, 1-(4-(1-(2,6-dichlorophenyl)azetidin-3-yl)-2,6-dimethylbenzyl)-3-(fluoromethyl) azetidin-3-ol] | 100 to 1000
18 | Cc1cc(C2CN(c3c(Cl)cccc3Cl)C2)cc(C)c1CN1CC(O)(C(F)F)C1 [Compound 40, 1-(4-(1-(2,6-dichlorophenyl)azetidin-3-yl)-2,6-dimethylbenzyl)-3-(difluoromethyl) azetidin-3-ol] | 100 to 1000
19 | Cc1cc(C2CN(c3c(Cl)cccc3Cl)C2)cc(C)c1CN1CC(O)(C(F)(F)F)C1 [Compound 41, 1-(4-(1-(2,6-dichlorophenyl)azetidin-3-yl)-2,6-dimethylbenzyl)-3-(trifluoromethyl) azetidin-3-ol] | 100 to 1000
20 | Cc1cc(C2CN(c3c(F)cccc3F)C2)cc(C)c1CN1CC(C)(O)C1 [Compound 42, 1-(4-(1-(2,6-difluorophenyl)azetidin-3-yl)-2,6-dimethylbenzyl)-3-methylazetidin-3-ol] | 10 to 100
21 | Cc1cc(C2CN(c3ccccc3)C2)cc(C)c1CN1CC(C)(O)C1 [Compound 43, 1-(2,6-dimethyl-4-(1-phenylazetidin-3-yl)benzyl)-3-methylazetidin-3-ol] | 1000 to 10000
22 | Cc1cc(C2CN(c3ccccc3F)C2)cc(C)c1CN1CC(C)(O)C1 [Compound 44, 1-(4-(1-(2-fluorophenyl)azetidin-3-yl)-2,6-dimethylbenzyl)-3-methylazetidin-3-ol] | 1000 to 10000
23 | Cc1cc(C2CN(c3cccc(F)c3)C2)cc(C)c1CN1CC(C)(O)C1 [Compound 45, 1-(4-(1-(3-fluorophenyl)azetidin-3-yl)-2,6-dimethylbenzyl)-3-methylazetidin-3-ol] | 1000 to 10000
24 | Cc1cc(C2CN(c3ccc(C4CC4)c(Cl)c3)C2)cc(C)c1CN1CC(C)(O)C1 [Compound 46, 1-(4-(1-(3-chloro-4-cyclopropylphenyl)azetidin-3-yl)-2,6-dimethylbenzyl)-3-methylazetidin-3-ol] | 100 to 1000
25 | Cc1cc(C2CN(c3c(Cl)cccc3Cl)C2)cc(F)c1CN1CC(C)(O)C1 [Compound 48, 1-(4-(1-(2,6-dichlorophenyl)azetidin-3-yl)-2-fluoro-6-methylbenzyl)-3-methylazetidin-3-ol] | 10 to 100
26 | Cc1cc(C2CN(c3c(Cl)cccc3Cl)C2)cc(Cl)c1CN1CC(C)(O)C1 [Compound 49, 1-(2-chloro-4-(1-(2,6-dichlorophenyl)azetidin-3-yl)-6-methylbenzyl)-3-methylazetidin-3-ol] | 10 to 100
27 | CC1(O)CN(Cc2ccc(C3CN(c4c(Cl)cccc4Cl)C3)cc2C2CC2)C1 [Compound 50, 1-(2-cyclopropyl-4-(1-(2,6-dichlorophenyl)azetidin-3-yl)benzyl)-3-methylazetidin-3-ol] | 10 to 100
28 | CCc1cc(C2CN(c3c(Cl)cccc3Cl)C2)cc(C)c1CN1CC(C)(O)C1 [Compound 51, 1-(4-(1-(2,6-dichlorophenyl)azetidin-3-yl)-2-ethyl-6-methylbenzyl)-3-methylazetidin-3-ol] | 10 to 100
29 | CCc1cc(C2CN(c3c(Cl)cccc3Cl)C2)cc(CC)c1CN1CC(C)(O)C1 [Compound 52, 1-(4-(1-(2,6-dichlorophenyl)azetidin-3-yl)-2,6-diethylbenzyl)-3-methylazetidin-3-ol] | 100 to 1000
30 | CC(C)c1cc(C2CN(c3c(Cl)cccc3Cl)C2)cc(C(C)C)c1CN1CC(C)(O)C1 [Compound 53, 1-(4-(1-(2,6-dichlorophenyl)azetidin-3-yl)-2,6-diisopropylbenzyl)-3-methylazetidin-3-ol] | 1000 to 10000
31 | Cc1cc(C2CN(c3c(Cl)cccc3Cl)C2)cc(C2CC2)c1CN1CC(C)(O)C1 [Compound 54, 1-(2-cyclopropyl-4-(1-(2,6-dichlorophenyl)azetidin-3-yl)-6-methylbenzyl)-3-methylazetidin-3-ol] | 10 to 100
32 | CC1(O)CN(Cc2ccc(C3CN(c4c(Cl)cccc4Cl)C3)c3ccccc23)C1 [Compound 55, 1-((4-(1-(2,6-dichlorophenyl)azetidin-3-yl)naphthalen-1-yl)methyl)-3-methylazetidin-3-ol] | 10 to 100
